# Literature values, collected in article PMC8198792, “Prediction of Anticancer Peptides with High Efficacy and Low Toxicity by Hybrid Model Based on 3D Structure of Peptides” (International Journal of Molecular Sciences, 2021).
# Like-named read-outs stand apart in the source and are kept apart here.
# Tested on: cancer cell lines
# Set-up: method as in 6 sources, ref CancerPPD [45] and SATPdb ||| ref CancerPPD/SATPdb ||| ref CancerPPD, SATPdb, Swissprot (PDB) ||| ref CancerPPD/SATPdb/Swissprot(PDB) ||| ref CancerPPD / SATPdb ||| ...
# Conditions: cited from earlier work
# From the text: Supplement ijms-22-05630-s001.zip/ACPs(seguence).xlsx, sheet "D1" | column: Activity || Supplement ijms-22-05630-s001.zip/ACPs(seguence).xlsx, sheet "D2" | column: Activity || Supplement ijms-22-05630-s001.zip/ACPs(seguence).xlsx, sheet "D3" | column: Activity || (+ 2 further places)
# [1] = ACPs dataset D3 (sheet "D3"), label 1 = ACP, 0 = non-ACP, ref CancerPPD/SATPdb
# [2] = ACPs dataset D4 (sheet "D4"), label 1 = ACP, 0 = non-ACP, ref CancerPPD / SATPdb
# [3] = ACPs dataset D5, sheet "D5", label 1 = ACP, 0 = non-ACP, ref CancerPPD [45] and SATPdb
# [4] = ACPs dataset D1, 1 = ACP (positive), 0 = non-ACP (negative), label taken from databases, ref CancerPPD [45] and SATPdb
# [5] = ACPs dataset D4 (sheet "D4"), label 1 = ACP, experimentally validated ACPs, ref CancerPPD [45] and SATPdb
# [6] = ACPs dataset D5 (sheet "D5"), label 1 = ACP (positive set), sequences with CancerPPD/SATPdb ID, ref CancerPPD, SATPdb
# [7] = ACPs dataset sheet D2, 1 = ACP (CancerPPD/SATPdb ID), 0 = non-ACP (Swissprot/PDB ID), ref CancerPPD, SATPdb, Swissprot (PDB)
# [8] = ACPs dataset D2 (supplement ACPs(seguence).xlsx, sheet D2), dataset label 1/0 (ACP / non-ACP), entries identified by Swissprot(PDB ID), ref CancerPPD/SATPdb/Swissprot(PDB)
# [9] = ACPs dataset D5 (sheet "D5"), label 1 = ACP (positive set), 0 = non-ACP (negative set), ref CancerPPD [45] and SATPdb
# [10] = ACPs dataset D4 (sheet "D4"), label 1 = ACP (CancerPPD ID), 0 = non-ACP (non-anticancer AMP, SATPdb ID), ref CancerPPD [45] and SATPdb
# [11] = ACPs dataset D1, label 1 = ACP, 0 = non-ACP (non-anticancer AMPs from SATPdb), ref CancerPPD/SATPdb
# [12] = ACPs dataset D3 (supplement sheet "D3"), 1 = ACP, 0 = non-ACP, ref CancerPPD [45] and SATPdb
substance,measurement,setting,value
FFPIVGKLLFGLL [satpdb13027],Activity,[1],0
same,Activity,[2],0
same,Activity,[3],0
EDMNQKLFDLRGKFKRPPLRRVRMSADAML [satpdb19871],Activity,[4],1
same,Activity,[5],1
same,Activity,[6],1
same,Activity,[7],1
"MLELLKSLVFAVIMVPVVMAIILGLIYGLGEVFNIFSGVGKKDQPGQNH [4C48 X-ray 3.30,C,1-49]",Activity,[8],0
same,Activity,[9],0
MPTWAWWLFLVLLLALWAPARG [satpdb27488],Activity,[4],1
same,Activity,[5],1
same,Activity,[6],1
same,Activity,[7],1
MASRAARLAARLARLALRAL [satpdb10584],Activity,[4],0
same,Activity,[10],0
MDKVQYLTRSAIRRASTIEMPQQARQNLQNLFINFCLILICLLLICIIVMLL [4KYT X-ray 2.83 B/C 1-52],Activity,[8],0
same,Activity,[3],0
TLPFAYCNIHQVCHYAQRNDRSYWL [satpdb12859],Activity,[4],1
same,Activity,[5],1
same,Activity,[6],1
same,Activity,[7],1
"MKNAKQEHFELDQEWVELMVEAKEANISPEEIRKYLLLNKKSAHPGPAARSHTVNPF [1B0N X-ray 1.90,B,1-57]",Activity,[8],0
same,Activity,[3],0
GCPRILMRCKQDSDCLAGCVCGPNGFCGSP [1H9H X-ray 1.50 I 1-30],Activity,[9],0
same,Activity,[7],0
GLPVCGETCTLGTCYTQGCTCSWPICKRN [satpdb13318],Activity,[11],0
same,Activity,[2],0
"YNRLCIKPRDWIDECDSNEGGERAYFRNGKGGCDSFWICPEDHTGADYYSSYRDCFNACI [1D0D X-ray 1.62,A,1-60]",Activity,[8],0
same,Activity,[3],0
SPWSPCSGNCSTGKQQRTR [satpdb11308],Activity,[4],1
same,Activity,[5],1
same,Activity,[6],1
same,Activity,[7],1
GILGKLWEGFKSIV [satpdb13792],Activity,[1],0
same,Activity,[2],0
same,Activity,[3],0
ALALLOHALHOLALLAOHLAHOLALA [satpdb14515],Activity,[1],0
same,Activity,[2],0
same,Activity,[3],0
GGLKKLGKKLEGVGKRVFKASEKALPVLTGYKAIG [satpdb10158],Activity,[4],0
same,Activity,[10],0
GWLPTFGKILRKAMQLGPKLIQPI [satpdb12473],Activity,[11],0
same,Activity,[10],0
RTCESPSNKFQGVCLNSQSCAKACPSEGFSGGRCSSLRCYCSKAC [satpdb13976],Activity,[11],0
same,Activity,[10],0
TEWSACNVRCGRGWQKRSR [satpdb12052],Activity,[4],1
same,Activity,[5],1
same,Activity,[6],1
same,Activity,[7],1
GIFSLFKAGAKFFGKHLLKQAGKAGAEHLACKATNQC [satpdb10483],Activity,[4],0
same,Activity,[10],0
FLWWLFKWAWK [compound 1728],Activity,[4],1
same,Activity,[12],1
same,Activity,[5],1
same,Activity,[6],1
same,Activity,[7],1
GGLRSLGRKILRAWKKYGPIIVPIIRIG [compound 4394],Activity,[4],1
same,Activity,[5],1
same,Activity,[6],1
same,Activity,[7],1
GLFSKFVGKGIKNFLIKGVKHIGKEVGMDVIRVGIDVAGCKIKGVC [satpdb10682],Activity,[4],0
same,Activity,[10],0
GILGNIVGMGKQVVCGLSGLC [satpdb10178],Activity,[4],0
same,Activity,[10],0
RRWCFRVCYR GFCYRKCR [1RKK NMR - A 1-18],Activity,[9],0
same,Activity,[7],0
GIIKKIIIKKIIIKKIIIKKI [compound 1434],Activity,[4],1
same,Activity,[5],1
same,Activity,[6],1
same,Activity,[7],1
SPWDIASVTAGGVQKRS [satpdb27667],Activity,[4],1
same,Activity,[5],1
same,Activity,[6],1
same,Activity,[7],1
KWKLFKKIPHLAKKF [compound 1140],Activity,[12],1
same,Activity,[10],1
same,Activity,[9],1
GMWSKILGKLIR [compound 3638],Activity,[12],1
same,Activity,[10],1
same,Activity,[9],1
KSVRGKGKGQKRKRKKSRYK [satpdb21584],Activity,[4],1
same,Activity,[5],1
same,Activity,[6],1
same,Activity,[7],1
GWIRDFGKRIERVGQHTRDATIQTIAVAQQAANVAATLKG [satpdb12541],Activity,[11],0
same,Activity,[10],0
GKWSKILGKLIR [compound 3644],Activity,[12],1
same,Activity,[10],1
same,Activity,[9],1
GIACGESCVFLGCFIPGCSCKSKVCYFN [compound 4397],Activity,[4],1
same,Activity,[5],1
same,Activity,[6],1
same,Activity,[7],1
ISDYSIAMDKIRQQDFVNWLLAQKGKKSDWKHNITQ [satpdb11921],Activity,[11],0
same,Activity,[10],0
GKWSKILGHLIR [compound 3641],Activity,[12],1
same,Activity,[10],1
same,Activity,[9],1
LTAEHYAAQATS [compound 4580],Activity,[4],1
same,Activity,[5],1
same,Activity,[6],1
same,Activity,[7],1
DRSTREPIYMSTI [satpdb20500],Activity,[4],1
same,Activity,[5],1
same,Activity,[6],1
same,Activity,[7],1
SGSDGGVCPKILKKCRRDSDCPGACICRGNGYCG [1HA9 NMR - A 1-34],Activity,[9],0
same,Activity,[7],0
KLALKLALKAlkAALKLA [satpdb10294],Activity,[4],0
same,Activity,[10],0
YITCLFRGARCRVYSGRSCCFGYYCRRDFPGSIFGTCSRRNF [2DCW NMR - A 1-42],Activity,[8],0
same,Activity,[9],0
SVSNAATRVARTGRSRWRDVARNFMR [satpdb11117],Activity,[4],0
same,Activity,[10],0
GMWSKILGHLIK [compound 3636],Activity,[12],1
same,Activity,[10],1
same,Activity,[9],1
GKWMSLWKHILK [compound 3657],Activity,[12],1
same,Activity,[10],1
same,Activity,[9],1
IWLTALKFLGKNLGKHLAKQQLAKL [6CL3 NMR - A 1-25],Activity,[9],0
same,Activity,[7],0
FLPLIGKILGTILGK [satpdb11777],Activity,[11],0
same,Activity,[10],0
GILDSFKQFAKGVGKDLIKGAAQGVLSTMSCKLAKTC [satpdb11305],Activity,[4],0
same,Activity,[10],0
GKWMKLLKHILK [compound 3652],Activity,[12],1
same,Activity,[10],1
same,Activity,[9],1
FLPVVAGLAAKVLPSIICAVTKKC [satpdb12902],Activity,[11],0
same,Activity,[2],0
ILGKIWKIKKLF [satpdb10262],Activity,[4],0
same,Activity,[10],0
SLIPHAINAVSAIAKHF [satpdb12892],Activity,[1],0
same,Activity,[2],0
same,Activity,[3],0
ASFPWSCPSLSGVCRKVCLPTELFFGPLGCGKGFLCGVSHFL [satpdb13301],Activity,[11],0
same,Activity,[2],0
AKLkAyPLKAKLyP [satpdb12877],Activity,[1],0
same,Activity,[2],0
same,Activity,[3],0
VVKCSYRLGSPDSQCN [satpdb13432],Activity,[11],0
same,Activity,[2],0
FKLFKKIPKFLHLAKKF [compound 1124],Activity,[12],1
same,Activity,[5],1
same,Activity,[6],1
QRACPRILKKCRRDSDCPGECICKENGYCG [2LJS NMR - A 1-30],Activity,[9],0
same,Activity,[7],0
MVEPLLDGLVLGLVFATLGGLFYAAYQQYKRPNELGG [4I7Z X-ray 2.80 G 1-37],Activity,[8],0
same,Activity,[9],0
QEPHRHSIFTPQTNPRADLEKN [satpdb11381],Activity,[4],1
same,Activity,[5],1
same,Activity,[6],1
same,Activity,[7],1
"MSAGVITGVLLVFLLLGYLVYALINAEAF [6HRA electron microscopy 3.70, D ,1-29]",Activity,[9],0
same,Activity,[7],0
KMWSKILGHLIR [compound 3511],Activity,[12],1
same,Activity,[10],1
same,Activity,[9],1
FLPAIVGAAAKFLPKIFCAISKKC [compound 4356],Activity,[4],1
same,Activity,[5],1
same,Activity,[6],1
same,Activity,[7],1
LCYARRRFAVCV [satpdb13142],Activity,[11],0
same,Activity,[2],0
GVLSNVIGYLKKLGTGALNAVLKQ [satpdb12685],Activity,[11],0
same,Activity,[10],0
